In US10947252B2, “Inhibitors of KEAP1-Nrf2 protein-protein interaction” (Janssen Pharmaceutica NV, priority 2018, dated 2021):

Key:
[1] = tested on: Glo-Response ARE-luc2P HEK293 cell line; assay: ARE luciferase reporter cell-based assay; settings: Homo sapiens, HEK293, 24 h, average of results obtained;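 also: luciferase signal tracks Nrf2 activation of the ARE once compounds disrupt KEAP1-Nrf2 binding, read with One-Glo reagent, DMSO serving as low control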
[2] = biological target: Kelch domain of human KEAP1 (321-624 aa) (Homo sapiens (Human), UniProt Q14145); assay: KEAP1 KELCH ThermoFluor binding assay; settings: KEAP Kelch […], 1,8-ANS, pH 7.0, average of results obtained, read-out: Tf Kd;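 also: Ligand-induced melting temperature shift of E. coli-expressed KEAP1 Kelch protein, Kd estimated from concentration-response curves of ΔTm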
Chain of Kelch domain of human KEAP1 (321-624 aa) (Q14145 321-624): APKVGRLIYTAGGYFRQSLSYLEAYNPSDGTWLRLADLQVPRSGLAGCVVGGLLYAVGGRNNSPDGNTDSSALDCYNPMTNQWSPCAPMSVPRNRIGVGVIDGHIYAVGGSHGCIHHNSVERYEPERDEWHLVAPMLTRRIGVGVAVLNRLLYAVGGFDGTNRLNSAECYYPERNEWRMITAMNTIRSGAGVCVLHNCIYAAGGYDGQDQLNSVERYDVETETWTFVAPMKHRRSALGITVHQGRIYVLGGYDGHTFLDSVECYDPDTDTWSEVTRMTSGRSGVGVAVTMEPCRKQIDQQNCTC

| Kd [2] [µM] | Structure (SMILES) | EC50 [1] [µM] |
| --- | --- | --- |
| < 0.001 | CC[C@@H]1CN(Cc2cc(C(CC(=O)O)c3ccn4c(C(F)F)nnc4c3C)ccc2C)S(=O)(=O)c2cccnc2O1 (mixture of isomers) [Example 463, 3-(3-(Difluoromethyl)-8-methyl-[1,2,4]triazolo[4,3-a]pyridin-7-yl)-3-(3-(((R)-4-ethyl-1,1-dioxido-3,4-dihydro-2H-pyrido[2,3-b][1,4,5]oxathiazepin-2-yl)methyl)-4-methylphenyl)propanoic Acid] | 0.0276 |
| 0.049 | Cc1ccc(C(CC(=O)O)c2ccn3c(C(F)(F)F)nnc3c2C)cc1CN1C[C@@H]2CN(C)CCN2c2ncccc2S1(=O)=O (mixture of isomers) [Example 177, (R/S)-3-(4-Methyl-3-(((*S)-9-methyl-5,5-dioxido-7,7a,8,9,10,11-hexahydro-6H-pyrazino[2,1-d]pyrido[2,3-f][1,2,5]thiadiazepin-6-yl)methyl)phenyl)-3-(8-methyl-3-(trifluoromethyl)-[1,2,4]triazolo[4,3-a]pyridin-7-yl)propanoic Acid] | 1.39 |
| < 0.001 | Cc1ccc(C(CC(=O)O)c2ccc3c(nnn3C3CC3)c2C)cc1CN1CC2(COC2)Oc2ccccc2S1(=O)=O (racemic) [Example 214, (R/S)-3-(1-Cyclopropyl-4-methyl-1H-benzo[d][1,2,3]triazol-5-yl)-3-(3-((1,1-dioxidospiro[benzo[b][1,4,5]oxathiazepine-4,3′-oxetan]-2(3H)-yl)methyl)-4-methylphenyl)propanoic Acid] | 0.0051 |
| < 0.001 | Cc1ccc(C(CC(=O)O)c2ccc3c(nnn3C3CC3)c2C)cc1CN1C[C@@H]2CCCCN2c2ccccc2S1(=O)=O (mixture of isomers) [Example 217, (R/S)-3-(1-Cyclopropyl-4-methyl-1H-benzo[d][1,2,3]triazol-5-yl)-3-(3-(((*S)-5,5-dioxido-7,7a,8,9,10,11-hexahydro-6H-benzo[f]pyrido[2,1-d][1,2,5]thiadiazepin-6-yl)methyl)-4-methylphenyl)propanoic Acid] | 0.011 |

The remaining lines, values behind:

| Structure (SMILES) | Kd [2] [µM] | EC50 [1] [µM] |
| --- | --- | --- |
| Cc1ccc(C(CC(=O)O)c2ccn3c(C(F)F)nnc3c2C)cc1CN1C[C@@H]2CCCN2c2ncc(C#N)cc2S1(=O)=O (mixture of isomers) [Example 542, 3-(3-(((S)-3-Cyano-5,5-dioxido-7a,8,9,10-tetrahydropyrido[2,3-f]pyrrolo[2,1-d][1,2,5]thiadiazepin-6(7H)-yl)methyl)-4-methylphenyl)-3-(3-(difluoromethyl)-8-methyl-[1,2,4]triazolo[4,3-a]pyridin-7-yl)propanoic Acid] | < 0.001 | 0.0597 |
| Cc1ccc(C(c2ccn3c(C(F)(F)F)nnc3c2C)C(C)(C)C(=O)O)cc1CN1CC2(CCOCC2)Oc2nc(OCCN3CCOCC3)ccc2S1(=O)=O (racemic) [Example 46] | < 0.001 | 0.0719 |
| Cc1ccc(C(c2ccn3c(C(F)F)nnc3c2C)C(C)(C)C(=O)O)cc1CN1CC2(CCOCC2)Oc2ncccc2S1(=O)=O (racemic) [Example 52, (R/S)-3-(3-(Difluoromethyl)-8-methyl-[1,2,4]triazolo[4,3-a]pyridin-7-yl)-3-(3-((1′,1′-dioxido-2,3,5,6-tetrahydrospiro[pyran-4,4′-pyrido[2,3-b][1,4,5]oxathiazepin]-2′(3′H)-yl)methyl)-4-methylphenyl)-2,2-dimethylpropanoic Acid] | < 0.001 | 0.0082 |
| Cc1cnc(C(c2ccn3c(C(F)(F)F)nnc3c2C)C(C)(C)C(=O)O)cc1CN1CC2(CCOCC2)Oc2ncccc2S1(=O)=O (racemic) [Example 55, (R/S)-3-(4-((1′,1′-Dioxido-2,3,5,6-tetrahydrospiro[pyran-4,4′-pyrido[2,3-b][1,4,5]oxathiazepin]-2′(3′H)-yl)methyl)-5-methylpyridin-2-yl)-2,2-dimethyl-3-(8-methyl-3-(trifluoromethyl)-[1,2,4]triazolo[4,3-a]pyridin-7-yl)propanoic Acid] | < 0.001 | 0.124 |
| CCn1nnc2c(C)c(C(c3cnc(C)c(CN4CC5(CCOCC5)Oc5ncccc5S4(=O)=O)c3)C(C)(C)C(=O)O)ccc21 (racemic) [Example 58, (R/S)-3-(5-((1′,1′-Dioxido-2,3,5,6-tetrahydrospiro[pyran-4,4′-pyrido[2,3-b][1,4,5]oxathiazepin]-2′(3′H)-yl)methyl)-6-methylpyridin-3-yl)-3-(1-ethyl-4-methyl-1H-benzo[d][1,2,3]triazol-5-yl)-2,2-dimethylpropanoic Acid] | 0.0024 | 0.226 |
| CCn1nnc2c(C)c(C(c3cnc(C)c(CN4CC5(CCOCC5)Oc5ncc(C)cc5S4(=O)=O)c3)C(C)(C)C(=O)O)ccc21 (racemic) [Example 61, (R/S)-3-(1-Ethyl-4-methyl-1H-benzo[d][1,2,3]triazol-5-yl)-2,2-dimethyl-3-(6-methyl-5-((8′-methyl-1′,1′-dioxido-2,3,5,6-tetrahydrospiro[pyran-4,4′-pyrido[2,3-b][1,4,5]oxathiazepin]-2′(3′H)-yl)methyl)pyridin-3-yl)propanoic Acid] | < 0.001 | 0.0417 |
| Cc1ccc(C(CC(=O)O)c2ccn3c(C)nnc3c2)cc1CN1CC(C)(C)Oc2ncccc2S1(=O)=O (racemic) [Example 160, (R/S)-3-(3-((4,4-Dimethyl-1,1-dioxido-3,4-dihydro-2H-pyrido[2,3-b][1,4,5]oxathiazepin-2-yl)methyl)-4-methylphenyl)-3-(3-methyl-[1,2,4]triazolo[4,3-a]pyridin-7-yl)propanoic Acid] | < 0.001 | 19 |
| Cc1ccc(C(CC(=O)O)c2ccn3c(C)nnc3c2)cc1CN1CC(C)(C)Oc2ccccc2S1(=O)=O (racemic) [Example 161, (R/S)-3-(3-((4,4-Dimethyl-1,1-dioxido-3,4-dihydro-2H-benzo[b][1,4,5]oxathiazepin-2-yl)methyl)-4-methylphenyl)-3-(3-methyl-[1,2,4]triazolo[4,3-a]pyridin-7-yl)propanoic Acid] | 0.0028 | 15.9 |
| Cc1ccc(C(CC(=O)O)c2ccn3c(C(F)(F)F)nnc3c2C)cc1CN1C[C@H]2CN(C)CCN2c2ncccc2S1(=O)=O (mixture of isomers) [Example 180, (R/S)-3-(4-Methyl-3-(((*R)-9-methyl-5,5-dioxido-7,7a,8,9,10,11-hexahydro-6H-pyrazino[2,1-d]pyrido[2,3-f][1,2,5]thiadiazepin-6-yl)methyl)phenyl)-3-(8-methyl-3-(trifluoromethyl)-[1,2,4]triazolo[4,3-a]pyridin-7-yl)propanoic Acid] | 0.19 | 2.88 |
| Cc1ccc(C(CC(=O)O)c2ccn3c(C(F)(F)F)nnc3c2C)cc1CN1CC2(CC2)N(C)c2ncccc2S1(=O)=O (racemic) [Example 183, (R/S)-3-(4-Methyl-3-((5′-methyl-1′,1′-dioxido-5′H-spiro[cyclopropane-1,4′-pyrido[2,3-f][1,2,5]thiadiazepin]-2′(3′H)-yl)methyl)phenyl)-3-(8-methyl-3-(trifluoromethyl)-[1,2,4]triazolo[4,3-a]pyridin-7-yl)propanoic Acid] | 0.0016 | 0.37 |
